Test results published in US11278530B2, “Polycyclic amides as muscarinic M1 receptor positive allosteric modulators” (SUVEN LIFE SCIENCES LIMITED, priority 2017, dated 2022).

Legend:
[1] = target: T1, recombinant human Muscarinic M1 receptor (Homo sapiens, UniProt P11229); assay: Allosteric potency EC50 for Muscarinic M1 receptor, CHO pCRE-Luc reporter cell-based assay with EC20 of acetylcholine; conditions: CHO cells, human M1, luciferase reporter, in presence of EC20 of acetylcholine, 4 h
T1 sequence (P11229 1-460): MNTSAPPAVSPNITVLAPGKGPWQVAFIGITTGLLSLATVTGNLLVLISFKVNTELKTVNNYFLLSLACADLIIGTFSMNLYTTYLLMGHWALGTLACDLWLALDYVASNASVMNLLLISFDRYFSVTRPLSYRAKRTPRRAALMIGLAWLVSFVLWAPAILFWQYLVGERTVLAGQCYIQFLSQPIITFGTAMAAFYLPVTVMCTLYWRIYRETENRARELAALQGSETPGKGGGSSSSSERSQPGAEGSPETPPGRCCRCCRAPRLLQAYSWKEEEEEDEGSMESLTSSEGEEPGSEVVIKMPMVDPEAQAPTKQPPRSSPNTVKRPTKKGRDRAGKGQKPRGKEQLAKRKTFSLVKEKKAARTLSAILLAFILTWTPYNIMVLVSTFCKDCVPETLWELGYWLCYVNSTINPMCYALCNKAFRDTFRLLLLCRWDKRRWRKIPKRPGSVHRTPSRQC
Protocol: Determination of allosteric potency EC50 values for Muscarinic M1 receptor:
A stable CHO cell line expressing recombinant human Muscarinic M1 receptor and pCRE-Luc reporter system was used for cell-based assay. The assay offers a non-radioactive based approach to determine binding of a compound to GPCRs. In this specific assay, the level of intracellular cyclic AMP which is modulated by activation or inhibition of the receptor is measured. The recombinant cells harbor luciferase reporter gene under the control of cAMP response element.
The above cells were grown in 96 well clear bottom white plates in Hams F12 medium containing 10% fetal bovine serum (FBS). Prior to the addition of compounds or standard agonist, cells were serum starved overnight. Increasing concentrations of test compounds were added along with EC20 of acetylcholine in OptiMEM medium to the cells. The incubation was continued at 37° C. in CO2 incubator for 4 h. Medium was removed and cells were washed with phosphate buffered saline. The cells were lysed and luciferase activity was measured in a Luminometer. Luminescence counts in each concentrations of test item were normalized to the acetylcholine induced maximum response and the data was analyzed using Graphpad software. EC50 values of the compounds were defined as the concentration required in stimulating the luciferase activity by 50% in presence of EC20 of acetylcholine.

[2] = Rodent pharmacokinetic study; type: in vivo, Male Wistar rats; conditions: male, Wistar, rat, plasma; for bioavailability: oral 3 mg/kg vs i.v. 1 mg/kg, read-out: F (bioavailability)
Protocol: Rodent Pharmacokinetic Study
Male Wistar rats (260±50 grams) were used as experimental animals. Animals were housed individually in polypropylene cage. Two days prior to study, male Wistar rats were anesthetized with isoflurane for surgical placement of jugular vein catheter. Rats were randomly divided for oral (3 mg/kg) and intravenous (i.v) (1 mg/kg) dosing (n=3/group) and fasted overnight before oral dosing (p.o.). However, rats allocated to intravenous (i.v.) dosing food and water was provided ad libitum.
At pre-determined point, blood was collected through jugular vein and replenished with an equivalent volume of normal saline. Collected blood was transferred into a labelled eppendorf tube containing 10 μL of heparin as an anticoagulant. Typically blood samples were collected at following time points: 0.08, 0.25, 0.5, 1, 2, 4, 6, 8, and 24 h post dose. Blood was centrifuged at 4000 rpm for 10 minutes. Plasma was separated and stored frozen at −80° C. until analysis. The concentrations of the test compounds were quantified in plasma by qualified LC-MS/MS method using suitable extraction technique. The test compounds were quantified in the calibration range around 1-1000 ng/mL in plasma. Study samples were analyzed using calibration samples in the batch and quality control samples spread across the batch.
Pharmacokinetic parameters Cmax, Tmax (h), AUCt, T1/2, clearance and bioavailability (F) were calculated by non-compartmental model using standard non-compartmental model by using Phoenix WinNonlin 6.0.2 or 6.0.3 version Software package.

[3] = Rodent brain penetration study; type: in vivo, Male Wistar rats; conditions: male, Wistar, brain and plasma, po; rat, 3 mg/kg, p.o. @ 1.0 hr, brain-plasma ratio; read-out: Single dose Rat Brain Penetration (Cb/Cp)
Protocol: Rodent Brain Penetration Study
Male Wistar rats (260±40 grams) were used as experimental animals. Three animals were housed in each cage. Animals were given water and food ad libitum throughout the experiment and maintained on a 12 h light/dark cycle.
Brain penetration was determined in discrete manner in rats. One day prior to dosing day, male Wistar rats were acclimatized and randomly grouped according to their weight. At each time point (0.5, 1 and 2 h) n=3 animals were used.
The test compounds were suitably preformulated and administered orally at (free base equivalent) 3 mg/kg. Blood samples were removed via cardiac puncture by using isoflurane anesthesia. The animals were sacrificed to collect brain tissue. Plasma was separated and brain samples were homogenized and stored frozen at −20° C. until analysis. The concentrations of the test compounds in plasma and brain were determined using LC-MS/MS method.
The test compounds were quantified in plasma and brain homogenate by qualified LC-MS/MS method using suitable extraction technique. The test compounds were quantified in the calibration range of 1-500 ng/mL in plasma and brain homogenate. Study samples were analyzed using calibration samples in the batch and quality control samples spread across the batch.

Male Wistar rats = assay: Object recognition task model; type: in vivo; conditions: rat, p.o.; for Exploration time mean ± S.E.M, Familiar object / Exploration time mean ± S.E.M, Novel object: choice trial 24 h after T1
Protocol: Object Recognition Task Model
The cognition enhancing properties of compounds of this invention were estimated by using this model.
Male Wistar rats (8-10 weeks old) were used as experimental animals. Four animals were housed in each cage. Animals were kept on 20% food deprivation from a day prior to experimentation. Water was provided ad libitum throughout the experiment. Animals were maintained on a 12 h light/dark cycle in temperature and humidity controlled room. The experiment was carried out in circular arena made up of acrylic. Rats were habituated to individual arenas for up to 45 min in the absence of any objects on day 1.
One group of 12 rats received vehicle and another set of animals received compound of the formula (I), before the familiar (T1) and choice (T2) trials. During the familiarization phase, (T1), the rats were placed individually in the arena for 3 minutes, in which two identical objects (a1 and a2) were positioned 10 cm from the wall. 24 h after T1, trial for long-term memory test was performed. The same rats were placed in the same arena as they were placed in T1 trial. During the choice phase (T2) rats were allowed to explore the arena for 3 minutes in presence of a copy of familiar object (a3) and one novel object (b). During the T1 and T2 trial, explorations of each object (defined as sniffing, licking, chewing or having moving vibrissae whilst directing the nose towards the object at a distance of less than 1 cm) were recorded using stopwatch.
T1 is the total time spent exploring the familiar objects (a1+a2).
T2 is the total time spent exploring the familiar object and novel object (a3+b).
The object recognition test was performed as described by Ennaceur, A., Delacour, J., 1988, A new one-trial test for neurobiological studies of memory in rats—Behavioural data, Behav. Brain Res., 31, 47-59.

[4] = system: hippocampal θ rhythm, anesthetized male Wistar rats; assay: Theta modulation in dorsal hippocampus of anesthetized rats in combination with donepezil; type: in vivo
Excerpt: Male Wistar rats (240-320 g) were anesthetized by intraperitoneal administration of urethane (1.2 to 1.5 g/kg) for implantation of a catheter in the left femoral vein. The animal was placed in a stereotaxic frame for implanting an electrode (stainless steel wire, Plastics One) into the dorsal hippocampus (AP: −3.8 mm; ML: +2.2 mm; DV: −2.5 mm; Paxinos and Watson, 2004). Bipolar stimulating electrode (untwisted stainless steel wires, separated by 0.75-1.0 mm at their tips, Plastics One) was implanted in the Nucleus Pontis Oralis (NPO; AP: −7.8 mm; ML: 1.8 mm; DV: −6.0 mm; Paxinos and Watson, 2004). Additionally one electrode was implanted into the cerebellum which served as a reference. Hippocampal θ rhythm was evoked via a 6-s electrical stimulation train (20-160 PA, 0.3-ms pulse duration, 250 Hz) delivered to the NPO at a rate of 0.01 trains/s with a Grass S88 stimulator and PSIU6 stimulus isolation unit (Grass Medical Instruments, Quincy, Mass.). EEG was recorded at a rate of 1000 Hz using Ponemah (Version 5.2) software and stored for off-line analysis using NeuroScore (Version 3.0). Baseline amplitude level was achieved by using the current required to elicit 0 rhythm to 50% of the maximal amplitude under control conditions.
Power in the θ rhythm frequency in the stimulation period during the 30 min baseline period was calculated and the % changes in these measures post treatment were calculated. […] Statistical significance was considered at a p value less than 0.05.

Row | SMILES | EC50 [1] [nM] | AUC(0-t) ([2]; iv, i.v. 1 mg/kg) [ng·h/mL] | half-life ([2]; iv, i.v. 1 mg/kg) [h] | clearance ([2]; iv, i.v. 1 mg/kg) [mL/min/kg] | bioavailability [2] [%] | AUC(0-t) ([2]; oral 3 mg/kg) [ng·h/mL] | Cmax ([2]; oral 3 mg/kg) [ng/mL] | Tmax ([2]; oral 3 mg/kg) [h] | half-life ([2]; oral 3 mg/kg) [h] | Kp at 1 h [3] | other results
1 | Cc1c(Cc2ccc(-c3cnn(C)c3)cc2F)cc(C(=O)N[C@H]2CCCC[C@@H]2O)c2ncccc12 [Example 11, N-(cis-1S,2S-2-Hydroxycyclohexyl)-6-[2-fluoro-4-(1-methyl-1H-pyrazol-4-yl)-benzyl]-5-methylquinoline-8-carboxamide] | 100 | 12800 ± 2150 | 3.9 ± 0.2 | 1.3 ± 0.2 | 105 ± 25 | 40300 ± 9420 | 9690 ± 1420 | 1 to 2 | 4.8 ± 1.6 | 0.14 ± 0.01 | Inference (Male Wistar rats; 0.3 mg/kg): Active; Exploration time mean ± S.E.M, Familiar object (Male Wistar rats; 0.3 mg/kg): 12.20 ± 1.89 s; Exploration time mean ± S.E.M, Novel object (Male Wistar rats; 0.3 mg/kg): 17.33 ± 1.39 s; Mean area under the curve values (AUC) of θ power change compared with donepezil alone ([4]; Example 11 (1 mg/kg, i.v.) and donepezil (0.3 mg/kg, i.v.) vs donepezil alone): significantly higher compared to donepezil alone; effect on θ power of combination treatment compared with donepezil alone ([4]; Example 11 (1 mg/kg, i.v.) in combination with donepezil (0.3 mg/kg, i.v.) vs donepezil alone): significantly higher than the donepezil alone; θ power levels ([4]; Example 11 (1 mg/kg, i.v.) in combination with donepezil (0.3 mg/kg, i.v.), anesthetized rat): significant increase
2 | Cc1c(Cc2ccccc2)cc(C(=O)N[C@H]2CCCC[C@@H]2O)c2ncccc12 [Example 14, N-(cis-1S,2S-2-Hydroxycyclohexyl)-6-benzyl-5-methylquinoline-8-carboxamide] | 555 | 346 ± 25 | 0.8 ± 0.1 | 48 ± 3.4 | 13 ± 2.7 | 137 ± 28 | 70 ± 23 | 0.5 | 1.9 ± 0.1 | 1.27 ± 0.07 | Inference (Male Wistar rats; 3 mg/kg): Active; Exploration time mean ± S.E.M, Familiar object (Male Wistar rats; 3 mg/kg): 8.35 ± 1.98 s; Exploration time mean ± S.E.M, Novel object (Male Wistar rats; 3 mg/kg): 15.54 ± 3.58 s
3 | Cc1c(Cc2ccc(-c3cnn(C)c3)cc2)cc(C(=O)N[C@H]2CCCC[C@@H]2O)c2ncccc12 [Example 15, N-(cis-1S,2S-2-Hydroxycyclohexyl)-6-[4-(1-methyl-1H-pyrazol-4-yl)-benzyl]-5-methylquinoline-8-carboxamide] | 197 | 6860 ± 1810 | 3.1 ± 0.3 | 2.5 ± 0.6 | 40 ± 11 | 8190 ± 2180 | 1540 ± 397 | 2 | 3.7 ± 0.3 | 0.78 ± 0.22 | Inference (Male Wistar rats; 1 mg/kg): Active; Exploration time mean ± S.E.M, Familiar object (Male Wistar rats; 1 mg/kg): 12.93 ± 1.83 s; Exploration time mean ± S.E.M, Novel object (Male Wistar rats; 1 mg/kg): 20.42 ± 3.42 s
